One data set concerns MRC5. The data set is described as follows: Cytotoxicity against human MRC5 cells at 10 to 40 uM by Cell Titer Glo assay. It counts as toxicity, cell-based. Particulars: mrc5, 40 µM, dose 10-40 µM.
The test system of data set [1] is Chikungunya virus. The data set is described as follows: Inhibition of N-terminal 6-His/SUMO-tagged CHIKV 181/25 nsP2 extracted from Escherichia coli Rosetta 2 at 200 uM preincubated for 30 mins followed by ATP addition measured after 1 hr by ADP-Glo assay relative to control. The settings on record: time 90.0 min. In general terms: ADP-Glo first removes unused ATP, then detects ADP through luciferase.

The test system of data set [2] is Chikungunya virus. The data set is described as follows: Antiviral activity against CHIKV 181/25 expressing nLuc-capsid gene infected in human MRC5 cells assessed as inhibition of viral replication at 40 uM preincubated with cells for 1 hr followed by viral infection measured after 6 hrs post-infection by Nano-glo luciferase assay relative to control. The settings on record: for inhibition: time 7.0 hrs; for inhibition at 40 µM: 181/25, MRC5, time 7 hrs. It is filed as functional.

Data set [3] concerns Chikungunya virus. Kind of data set: Antiviral activity against CHIKV 181/25 expressing nLuc-capsid gene infected in human MRC5 cells assessed as reduction in viral replication preincubated with cells for 1 hr followed by viral infection measured after 6 hrs post-infection by Nano-glo luciferase assay. It counts as functional, organism-based. The settings on record: 181/25, MRC5, read-out: pEC50 (converted).

For another data set, the target named is Polyprotein P1234 (Chikungunya virus (strain S27-African prototype) (CHIKV), UniProt Q8JUX6). The data set is described as follows: Inhibition of N-terminal 6-His/SUMO-tagged CHIKV 181/25 nsP2 extracted from Escherichia coli Rosetta 2 preincubated for 30 mins followed by ATP addition measured after 1 hr by ADP-Glo assay.
A short description of data set [4]: Aqueous solubility of compound in PBS at pH 7.4. It counts as physicochemical.

The structures appear in SMILES notation. pIC50: −log10 of the molar value. In brackets after ≈: the same amount, converted by molar mass. Activity calls are given as the source filed them. The calls are words filed in the database; no cut-off is given here.

Chain of Polyprotein P1234 (Q8JUX6 536-1333 limits assumed): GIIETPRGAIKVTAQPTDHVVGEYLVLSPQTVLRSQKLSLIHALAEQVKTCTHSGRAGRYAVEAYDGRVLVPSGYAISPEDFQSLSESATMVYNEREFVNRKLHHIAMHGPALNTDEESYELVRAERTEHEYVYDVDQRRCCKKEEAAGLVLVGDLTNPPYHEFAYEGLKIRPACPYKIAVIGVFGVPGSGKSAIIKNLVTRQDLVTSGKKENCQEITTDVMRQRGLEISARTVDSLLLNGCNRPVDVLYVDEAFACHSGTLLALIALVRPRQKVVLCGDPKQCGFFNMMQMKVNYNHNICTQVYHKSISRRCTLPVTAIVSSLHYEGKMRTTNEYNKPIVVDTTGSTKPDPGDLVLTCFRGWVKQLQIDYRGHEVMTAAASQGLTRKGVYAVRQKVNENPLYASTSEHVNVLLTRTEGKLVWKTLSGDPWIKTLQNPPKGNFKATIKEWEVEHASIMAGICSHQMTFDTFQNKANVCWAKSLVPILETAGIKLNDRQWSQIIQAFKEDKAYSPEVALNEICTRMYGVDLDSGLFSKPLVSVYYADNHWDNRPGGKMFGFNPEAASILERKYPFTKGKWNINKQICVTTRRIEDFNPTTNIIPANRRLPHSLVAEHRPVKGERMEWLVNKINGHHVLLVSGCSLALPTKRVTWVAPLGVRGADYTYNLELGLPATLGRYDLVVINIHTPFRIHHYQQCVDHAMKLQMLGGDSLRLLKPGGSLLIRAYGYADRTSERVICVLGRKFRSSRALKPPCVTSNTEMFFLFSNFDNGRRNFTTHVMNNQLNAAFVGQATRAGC

What is called inhibition is how much of the control response was suppressed. As for `Cc1ccc(C2(C(=O)N3CCC4(CC3)CC(CNS(C)(=O)=O)CCO4)CCCC2)cc1` (configuration not stated), the Activity result in the data set on MRC5 was “Non-toxic”. In addition, the inhibition result in the data set with Chikungunya virus [1] and with Chikungunya virus [2] was “inactive” in each case.
Take `CN(C)S(=O)(=O)NCC1CCOC2(CCN(C(=O)C3(c4ccncc4)CCCC3)CC2)C1` (configuration not stated): the Activity result in the data set with MRC5 was “Non-toxic”. Besides, the inhibition result in the data set on Chikungunya virus [1] and in the data set with Chikungunya virus [2] was “inactive” each time.
`CN(C)S(=O)(=O)NCC1CCOC2(CCN(C(=O)C3(c4cccnc4)CCCC3)CC2)C1` (configuration not stated): the Activity result in the data set on MRC5 is reported as “Non-toxic”. For the same compound, in the data set on Chikungunya virus [1], the inhibition result was “inactive”. In the data set on Chikungunya virus [3], the EC50 is over 39.8 µM. Besides, the inhibition at 40 µM in the data set on Chikungunya virus [2] amounted to 50%.
For `CC1(C(=O)N2CCC3(CC2)CC(CNS(C)(=O)=O)CCO3)CCCC1` (configuration not stated) the same measures were “Non-toxic”, “inactive”, over 39.8 µM and 40%.
As a reminder, the pIC50 is the negative decadic logarithm of the IC50, by convention in mol/L. Read a low pIC50 as a high IC50. The term kinetic solubility denotes solubility judged after dilution from a stock solution rather than from solid. For the compound `CN(C)S(=O)(=O)NCC1CCOC2(CCN(C(=O)C3(c4ccccc4)CCCC3)CC2)C1` (configuration not stated), the Activity result in the data set with MRC5 is listed as “Non-toxic”. The inhibition with Chikungunya virus [1] was 90%. Also, the EC50 with Chikungunya virus [3] is 2.51 µM. Moreover, the negative-log IC50 (pIC50) against Polyprotein P1234 was under 4.40. In data set [4], this compound yielded a solubility (kinetic) of 200 µM (≈ 92.7 µg/mL).
As for `COc1ccc(C2(C(=O)N3CCC4(CC3)CC(CNS(C)(=O)=O)CCO4)CCCC2)cc1` (configuration not stated), the Activity result with MRC5 was “Non-toxic”. Further, the inhibition entry in the data set with Chikungunya virus [1] and in the data set on Chikungunya virus [2] was “inactive” in each case.
On to `O=C(NCC1CCOC2(CCN(C(=O)C3(c4ccccc4)CCCC3)CC2)C1)c1ccccn1` (configuration not stated), for which the Activity entry with MRC5 is recorded as “Non-toxic”. For the same compound, the inhibition in the data set on Chikungunya virus [1] was 90%. Besides, the EC50 in the data set with Chikungunya virus [3] was 1.58 µM. On Polyprotein P1234, this compound had a pIC50 of under 4.40. In data set [4], this compound registered a solubility (kinetic) of 190 µM (≈ 87.7 µg/mL).
For `CC(C)C(=O)NCC1CCOC2(CCN(C(=O)C3(c4ccccc4)CCCC3)CC2)C1` (configuration not stated), in that order: “Non-toxic”, 80%, 3.98 µM, under 4.40 and 170 µM (≈ 72.5 µg/mL).
Turning to `CC(C)(C)NC(=O)NCC1CCOC2(CCN(C(=O)C3(c4ccccc4)CCCC3)CC2)C1` (configuration not stated), in the data set with MRC5, the Activity result is given as “Non-toxic”. Also, in the data set with Chikungunya virus [1], the inhibition was found to be 80%. In addition, in the data set on Chikungunya virus [3], the EC50 is 10 µM. On Polyprotein P1234, this compound showed a pIC50 of under 4.40. In addition, the solubility (kinetic) in data set [4] was found to be 170 µM (≈ 77.5 µg/mL).
For `CN(CC1CCOC2(CCN(C(=O)C3(c4ccccc4)CCCC3)CC2)C1)C(=O)c1ccccn1` (configuration not stated) the same measures were “Non-toxic”, 80%, 5.01 µM, under 4.40 and 180 µM (≈ 85.6 µg/mL).
For `COc1cccc(C(=O)NCC2CCOC3(CCN(C(=O)C4(c5ccccc5)CCCC4)CC3)C2)c1` (configuration not stated) the same measures were “Non-toxic”, 70%, 5.01 µM, under 4.40 and 19 µM (≈ 9.32 µg/mL).
For `O=C1CCCN1CC1CCOC2(CCN(C(=O)C3(c4ccccc4)CCCC3)CC2)C1` (configuration not stated) the same measures were “Non-toxic”, 90%, 2.51 µM, under 4.40 and 200 µM (≈ 84.9 µg/mL).
Take `CC(C)NC(=O)NCC1CCOC2(CCN(C(=O)C3(c4ccccc4)CCCC3)CC2)C1` (configuration not stated): the Activity result in the data set on MRC5 is recorded as “Non-toxic”. The compound also gave an inhibition in the data set on Chikungunya virus [1] of 50%. In the data set on Chikungunya virus [3], the EC50 is 15.8 µM. This compound also had a pIC50 on Polyprotein P1234 of under 4.40. The compound also gave a kinetic solubility in data set [4] of 180 µM (≈ 79.5 µg/mL).
For `Cc1ccnc(NC2CCOC3(CCN(C(=O)C4(c5ccccc5)CCCC4)CC3)C2)c1` (configuration not stated) the same measures were “Non-toxic”, 70%, 6.31 µM, under 4.40 and 70 µM (≈ 30.4 µg/mL).
For `O=C(NCC1CCOC2(CCN(C(=O)C3(c4ccccc4)CCCC3)CC2)C1)C1CC1` (configuration not stated), in that order: “Non-toxic”, 80%, 3.98 µM, under 4.40 and 160 µM (≈ 67.9 µg/mL).

These data come from ChEMBL document CHEMBL6178023 (J Med Chem, 2025).
